Some test systems named below: M19-MEL melanoma; SNB-78 CNS; DLD-1 colon; DMS 114 small cell lung; XF 498 CNS; DMS 273 small cell lung; HOP-18 NSCLC; RXF-631 renal; P388 leukemia; SN12K1 renal; P388/ADR leukemia.
Holding throughout (assay): NCI tumour cell line growth inhibition, 48 h

Structures are written as SMILES.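 48-hour exposure; five concentrations; linearly interpolated endpoints. TGI: concentration producing complete growth inhibition.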

For 20 compounds, TGI results are on record in PubChem BioAssay (NCI).

Consider `CC(C)(C)N=C1CC(C)(C)c2ccccc2C(=Nc2ccccc2)S1`, for which the TGI in the test on M19-MEL melanoma was above 100 µM; in the test on SNB-78 CNS, above 100 µM; with DLD-1 colon, above 100 µM; in the test on DMS 114 small cell lung it was 83.4 µM; with XF 498 CNS, 45.5 µM; in the test on DMS 273 small cell lung, above 100 µM.

Take `Cc1ccc2nc3c(C)c(Cl)c(=O)cc-3sc2c1`: the TGI with M19-MEL melanoma was 12.9 µM; in the test with SNB-78 CNS, 96.9 µM; with DLD-1 colon, above 100 µM; in the test with HOP-18 NSCLC, 75.8 µM; with RXF-631 renal it was 91.3 µM; in the test on DMS 114 small cell lung it was 12.9 µM. Also, the TGI in the test on XF 498 CNS was 32.5 µM; with DMS 273 small cell lung, above 91.3 µM.

On to `COc1cccc(NC(=O)CSc2nnc(-c3ccc(N=Cc4ccc(Cl)cc4)cc3)o2)c1`, for which the TGI with M19-MEL melanoma is 60.8 µM; in the test on SNB-78 CNS, above 100 µM; with HOP-18 NSCLC it was above 100 µM; in the test with DMS 114 small cell lung, 46.9 µM; with XF 498 CNS, 37.7 µM.

Turning to `CN(C)C[C@H]1CC[C@@H](CN(C)C)C1=O`, the TGI was found to be 17 µM in the test with M19-MEL melanoma; 23.3 µM with SNB-78 CNS; 11.5 µM with DLD-1 colon; 14.8 µM in the test with HOP-18 NSCLC; 17.5 µM in the test on DMS 114 small cell lung; 15.1 µM in the test on XF 498 CNS. The same compound came in with a TGI in the test with DMS 273 small cell lung of 16.7 µM.

Regarding `CN1CCn2c(Br)ccc2C1=O`, the TGI in the test with M19-MEL melanoma, in the test on SNB-78 CNS, in the test on XF 498 CNS and with DMS 273 small cell lung was above 100 µM throughout.

For the compound `C/C(=N\NC(N)=O)C(CN1CCCCC1)C(c1ccccc1)c1c(O)c2ccccc2oc1=O` (stereo unspecified), the TGI in the test on M19-MEL melanoma, in the test with SNB-78 CNS, with DLD-1 colon, with HOP-18 NSCLC, with RXF-631 renal and in the test on DMS 114 small cell lung was above 100 µM each time. In the test with DMS 273 small cell lung, the TGI is above 100 µM.

In the case of `O=S1(=O)NNC(=NCc2ccc(Cl)cc2)c2ccccc21`, the TGI in the test with M19-MEL melanoma, in the test on SNB-78 CNS, in the test with DLD-1 colon, with RXF-631 renal, in the test with DMS 114 small cell lung and in the test with XF 498 CNS was above 100 µM each time. This compound registered a TGI with DMS 273 small cell lung above 100 µM.

Regarding `COc1cc([C@@H]2c3cc4c(cc3[C@@H](NC(=O)c3ccc(N)cc3)C3COC(=O)[C@@H]32)OCO4)cc(OC)c1O` (stereo partly specified), the TGI was above 100 µM in the test with M19-MEL melanoma; 35.4 µM in the test on DLD-1 colon; above 100 µM in the test with HOP-18 NSCLC; 9.71 µM in the test on DMS 114 small cell lung; 16.3 µM in the test with DMS 273 small cell lung.

Turning to `O=c1[nH]c(=O)n(C2OC(COP(=O)(O)OP(=O)(O)O)C(O)C2O)cc1F` (stereo unspecified), the TGI with M19-MEL melanoma, in the test with SNB-78 CNS, in the test with DLD-1 colon, in the test with HOP-18 NSCLC, with DMS 114 small cell lung and in the test with XF 498 CNS was above 50 µM each time. For the same compound, the TGI in the test on DMS 273 small cell lung was above 50 µM.

With `CCCCc1c2c(nc3c1CCc1cc4c(nc1-3)-c1nc3c(c(CCCC)c1CC4)CCC/C3=C\c1ccccc1)/C(=C/c1ccccc1)CCC2`, the TGI was above 100 µM in the test on M19-MEL melanoma; above 100 µM in the test with SNB-78 CNS; above 100 µM with DLD-1 colon; above 100 µM in the test on DMS 114 small cell lung; 66.6 µM in the test with XF 498 CNS; above 100 µM with DMS 273 small cell lung.

`CC1=CC(O)C(O)C2(C)C1CC1OC(=O)C(O)C3C(C)C(O)C4(O)OCC13C42` (stereo unspecified): the TGI was above 625 µM in the test with P388 leukemia; 394 µM in the test on M19-MEL melanoma; 154 µM in the test with SNB-78 CNS; 150 µM in the test with SN12K1 renal; above 625 µM in the test with P388/ADR leukemia; above 625 µM in the test with DLD-1 colon. In addition, the TGI with HOP-18 NSCLC is above 625 µM; with DMS 114 small cell lung, 157 µM; with XF 498 CNS, 311 µM; with DMS 273 small cell lung, above 567 µM.

`Cc1cccc(NC(=O)C(=O)C2C(=O)NC(=O)NC2=O)c1C`: the TGI in the test with M19-MEL melanoma, in the test with SNB-78 CNS, with DLD-1 colon, in the test on HOP-18 NSCLC, with DMS 114 small cell lung and in the test with DMS 273 small cell lung was above 100 µM throughout.

For `O=C(N/N=C(/c1nc2ccc(Cl)cc2[nH]c1=O)C(O)c1ccc(Cl)cc1Cl)c1ccncc1` (stereo unspecified), the TGI with M19-MEL melanoma, in the test with SNB-78 CNS, in the test with DLD-1 colon, in the test with RXF-631 renal, in the test on DMS 114 small cell lung and in the test with DMS 273 small cell lung was above 100 µM each time.

With `COc1cc(C2C3=C(CCC3=O)Oc3cc4c(cc32)OCO4)cc(OC)c1OC` (stereo unspecified), the TGI in the test on M19-MEL melanoma is above 100 µM; in the test on SNB-78 CNS it was above 100 µM; in the test with HOP-18 NSCLC, above 100 µM; with RXF-631 renal it was 78.3 µM; in the test on DMS 114 small cell lung, 0.725 µM; in the test with XF 498 CNS, 0.736 µM. This compound came in with a TGI with DMS 273 small cell lung above 100 µM.

On to `Cc1ccc(C(=O)N(C(C)C)C(C)C)cc1N=NN(C)C`, for which the TGI in the test with M19-MEL melanoma, with SNB-78 CNS, in the test on DLD-1 colon and in the test with DMS 273 small cell lung was above 100 µM throughout.

On to `COc1ccc(/C=C2\Cc3ccccc3C2=O)cc1OC`, for which the TGI in the test on M19-MEL melanoma, in the test with SNB-78 CNS, in the test on DLD-1 colon, in the test with DMS 114 small cell lung and in the test on XF 498 CNS was above 100 µM in each case.

Take `NC(Cc1cc(I)c(O)c(I)c1)C(=O)O` (stereo unspecified): the TGI is 160 µM with P388 leukemia; above 393 µM in the test with M19-MEL melanoma; above 500 µM with SNB-78 CNS; 246 µM in the test with SN12K1 renal; above 364 µM in the test with P388/ADR leukemia; above 500 µM in the test on DLD-1 colon. Also, the TGI is above 500 µM in the test on HOP-18 NSCLC, above 293 µM with DMS 114 small cell lung, above 500 µM in the test with XF 498 CNS and above 322 µM in the test with DMS 273 small cell lung.

Turning to `Cc1nc(C)c(C(=O)Nc2cccc3c2C(=O)NC3=O)cc1C(=O)Nc1cccc2c1C(=O)NC2=O`, the TGI with M19-MEL melanoma, in the test with SNB-78 CNS, in the test with DLD-1 colon, in the test on HOP-18 NSCLC, in the test on DMS 114 small cell lung and in the test with XF 498 CNS was above 100 µM each time. In the test with DMS 273 small cell lung, the TGI was above 100 µM.

In the case of `CC1(O)C=CC2CCC1C2O` (stereo unspecified), the TGI in the test with M19-MEL melanoma is above 100 µM; in the test on SNB-78 CNS, above 100 µM; in the test with DLD-1 colon it was above 100 µM; with HOP-18 NSCLC, above 100 µM; in the test with DMS 114 small cell lung, 32.1 µM; in the test with XF 498 CNS, above 100 µM. The compound further registered a TGI in the test on DMS 273 small cell lung above 100 µM.

As to `Cc1csc2c1C(=O)c1ccsc1C2=O`, the TGI in the test with M19-MEL melanoma was determined as 0.339 µM; in the test with SNB-78 CNS, 16.5 µM; with DLD-1 colon it was 10.6 µM; in the test on HOP-18 NSCLC, 3.73 µM; in the test with DMS 114 small cell lung, 3.1 µM; with XF 498 CNS, 5.06 µM. Moreover, the TGI in the test with DMS 273 small cell lung came out at 4.45 µM.
